Measurements as given in ChEMBL document CHEMBL1151113, “Umuhengerin, a new antimicrobially active flavonoid from Lantana trifolia” (1988).
Active and inactive are the calls of the source.

Columns and labels:
[1] = tested on: Human alphaherpesvirus 1; test: Antiviral activity against Herpes simplex virus 1 in african green monkey Vero cells; type: functional, organism-based
[2] = tested on: Aspergillus fumigatus; test: Antifungal activity against Aspergillus fumigatus; type: functional
[3] = tested on: Poliovirus 1; test: Antiviral activity against Human poliovirus 1 1A/S2 in african green monkey Vero cells; type: functional, organism-based
[4] = tested on: Trichophyton rubrum; test: Antifungal activity against Trichophyton rubrum; type: functional
[5] = tested on: Streptococcus pneumoniae; test: Antibacterial activity against Streptococcus pneumoniae; type: functional
[6] = tested on: Semliki Forest virus; test: Antiviral activity against Semliki forest virus in african green monkey Vero cells; type: functional, organism-based
[7] = tested on: Trichophyton mentagrophytes; test: Antifungal activity against Trichophyton mentagrophytes; type: functional
[8] = tested on: Candida albicans; test: Antifungal activity against Candida albicans; type: functional
[9] = tested on: Shigella flexneri; test: Antibacterial activity against Shigella flexneri; type: functional
[10] = tested on: Klebsiella aerogenes; test: Antibacterial activity against Enterobacter aerogenes; type: functional
[11] = tested on: Mycolicibacterium fortuitum; test: Antibacterial activity against Mycobacterium fortuitum; type: functional
[12] = tested on: Klebsiella pneumoniae; test: Antibacterial activity against Klebsiella pneumoniae; type: functional
[13] = tested on: Coxsackievirus; test: Antiviral activity against Coxsackievirus B2 in african green monkey Vero cells; type: functional, organism-based
[14] = tested on: Streptococcus pyogenes; test: Antibacterial activity against Streptococcus pyogenes; type: functional
[15] = tested on: Pseudomonas aeruginosa; test: Antibacterial activity against Pseudomonas aeruginosa; type: functional
[16] = tested on: Escherichia coli; test: Antibacterial activity against Escherichia coli; type: functional
[17] = tested on: Streptococcus viridans; test: Antibacterial activity against Streptococcus viridans; type: functional
[18] = tested on: Salmonella typhimurium; test: Antibacterial activity against Salmonella Typhimurium; type: functional, Salmonella enterica subsp. enterica serovar Typhimurium; settings: Salmonella enterica
[19] = tested on: Micrococcus; test: Antibacterial activity against Micrococcus sp.; type: functional
[20] = tested on: Proteus vulgaris; test: Antibacterial activity against Proteus vulgaris; type: functional
[21] = tested on: Microsporum canis; test: Antifungal activity against Microsporum canis; type: functional
[22] = tested on: Aspergillus flavus; test: Antifungal activity against Aspergillus flavus; type: functional
[23] = tested on: Staphylococcus aureus; test: Antibacterial activity against Staphylococcus aureus ATCC 25923; type: functional
[24] = tested on: Neisseria gonorrhoeae; test: Antibacterial activity against Neisseria gonorrhoeae; type: functional
[25] = tested on: Serratia marcescens; test: Antibacterial activity against Serratia marcescens; type: functional
[26] = tested on: Aspergillus niger; test: Antifungal activity against Aspergillus niger; type: functional
[27] = tested on: Candida tropicalis; test: Antifungal activity against Candida tropicalis; type: functional

COc1cc(-c2cc(=O)c3c(O)c(OC)c(OC)cc3o2)cc(OC)c1OC [GRADENIN A]
200 µg/mL: MIC [2] | MIC [26]
> 200 µg/mL: MIC [4] | MIC [5] | MIC [8] | MIC [9] | MIC [10] | MIC [11] | MIC [12] | MIC [14] | MIC [15] | MIC [16] | MIC [17] | MIC [19] | MIC [20] | MIC [22] | MIC [24] | MIC [25]
20 µg/mL: MIC [23] | MIC [27]
5 µg/mL: MIC [18]
50 µg/mL: MIC [7] | MIC [21]
inactive: Activity [1] | Activity [3] | Activity [6] | Activity [13]
